From patent US20060111385A1, “Novel 4-phenyl substituted tetrahydroisoquinolines and therapeutic use thereof” (priority 2004, published 2006)
Counter-ions that a name gives are not always drawn.

Test system: dopamine transporter protein over the norepinephrine transporter protein
Conditions: selectivity for dopamine transporter protein over norepinephrine transporter protein; cited from earlier work

| Structure (SMILES) | DAT/NET Ki ratio |
| --- | --- |
| COC(=O)C(c1ccccc1)C1CCCCN1 (stereo not shown) [Methylphenidate, methylphenidate] | 0.1 |

Test system: not given
Conditions: not given

| Structure (SMILES) | melting point |
| --- | --- |
| CN1Cc2c(ccc3ccoc23)C(c2ccc(F)cc2)C1 (stereo not shown) (as salt: hydrochloride) | 242 to 257 °C |
| CN1Cc2c(ccc3ccoc23)C(c2cc(F)cc(F)c2)C1 (stereo not shown) (as salt: hydrochloride) | 233 to 236 °C |
| CN1Cc2c(ccc3ccoc23)C(c2ccccc2)C1 (single isomer, unassigned) | 81 to 83 °C |
| Cc1ccc(C2CN(C)Cc3c2ccc2ccoc32)cc1 (single isomer, unassigned) (as salt: hydrochloride) | 240 to 246 °C |
| CN1Cc2c(ccc3ccoc23)C(c2ccccc2)C1 (single isomer, unassigned) (as salt: maleate) | 165 to 168 °C |
| Cc1ccc(C2CN(C)Cc3c2ccc2ccoc32)cc1 (single isomer, unassigned) (as salt: maleate) | 190 to 191 °C |
